Assay results taken from patent US7183383B2, “Uses of collagen IV” (The University of Arkansas for Medical Sciences, priority 2002, dated 2007).

What was measured:
[1] = tested on: prolyl hydroxylase activity in renal proximal tubular cells; assay: Proline hydroxylation in newly synthesized collagen IV (dual labeling); format: cell-based, rabbit; conditions: day 1 after DCVC
Text: Proline hydroxylation in collagen molecules occurs at the 4-trans position. Therefore, the extent of proline hydroxylation can be estimated by the loss of hydrogen from the 4-trans position of proline in the hydroxylation reaction. A previously described dual-labeling technique for the determination of proline hydroxylation was modified using [^14C]-L-proline and 4-[^3H]-L-proline incorporation into collagen IV and measuring the ratio of [^3H]:[^14C] in collagen IV molecules (5). A greater extent of proline hydroxylation at the 4-trans position of proline will result in a decrease in the ratio of [^3H]:[^14C] in newly synthesized collagen molecules due to the loss of [^3H]. Renal proximal tubular cells were dual-labeled for 24 hours with [^14C]-L-proline ([…]) and 4-[^3H]-L-proline (62.5 μCi/ml) immediately after S-(1,2-dichlorovinyl)-L-cysteine exposure. Cell-associated and deposited proteins were harvested, and collagen IV was immunoprecipitated as described above. Immunoprecipitated collagen IV was visualized by SDS-PAGE as described above, the 206 kDa bands in the destained gels were excised, and the protein was extracted with 90% hyamine hydroxide overnight at 37° C. [^14C]-Proline and 4-[^3H]-proline in collagen IV was determined using liquid scintillation spectrometry, and the extent of proline hydroxylation was calculated as the ratio of [^3H]:[^14C].

[2] = tested on: collagen IV synthesis in renal proximal tubular cells; assay: Newly synthesized collagen IV (immunoprecipitation, autoradiography, densitometry); format: cell-based, rabbit
Experimental: Immunoprecipitation of newly synthesized and deposited collagen IV was performed using the method of Niki et al., with some modifications (34). On days 1, 4, and 6 after sublethal S-(1,2-dichlorovinyl)-L-cysteine injury, renal proximal tubular cells were metabolically labeled for 24 hours with 25 μCi/ml of [^35S]-L-methionine. Cell monolayers were washed with PBS, solubilized for 30 minutes in lysis buffer (20 mM Tris-HCl (pH 8.8), 2 mM EDTA, 0.2 mM PMSF, 10 mM N-ethylmaleimide, 1% Triton X-100, 1% sodium deoxycholic acid, 150 mM NaCl, and 1 mM EGTA) containing protease inhibitors (25 μg/ml pepstatin A, 12.5 μg/ml leupeptin, 12.5 μg/ml aprotinin), and centrifuged at 15,000×g for 10 minutes at 4° C. The resulting supernatants (soluble fraction, cell-associated collagen) were transferred to fresh tubes, snap frozen in liquid N2, and stored at −80° C. […] Protein concentration in cell-associated and ECM-associated fractions was determined using a Coomassie protein microassay (Pierce, Rockford, Ill.) with BSA as the standard. […]
(§1) Radiolabeled collagen IV was separated by SDS-PAGE and visualized by autoradiography (22). […] After film development, densitometry of the resulting 206 kDa bands was calculated using NIH Image software.

[3] = tested on: collagen IV deposition in renal proximal tubular cells; assay: Newly deposited collagen IV (immunoprecipitation, autoradiography, densitometry); format: cell-based, rabbit
Experimental: Immunoprecipitation of newly synthesized and deposited collagen IV was performed using the method of Niki et al., with some modifications (34). On days 1, 4, and 6 after sublethal S-(1,2-dichlorovinyl)-L-cysteine injury, renal proximal tubular cells were metabolically labeled for 24 hours with 25 μCi/ml of [^35S]-L-methionine. Cell monolayers were washed with PBS, solubilized for 30 minutes in lysis buffer (20 mM Tris-HCl (pH 8.8), 2 mM EDTA, 0.2 mM PMSF, 10 mM N-ethylmaleimide, 1% Triton X-100, 1% sodium deoxycholic acid, 150 mM NaCl, and 1 mM EGTA) containing protease inhibitors (25 μg/ml pepstatin A, 12.5 μg/ml leupeptin, 12.5 μg/ml aprotinin), and centrifuged at 15,000×g for 10 minutes at 4° C. The resulting supernatants (soluble fraction, cell-associated collagen) were transferred to fresh tubes, snap frozen in liquid N2, and stored at −80° C. Pelleted material (insoluble fraction, ECM-associated collagen) was resuspended in pellet solubilization buffer (20 mM Tris-HCl (pH 8.8), 2 mM EDTA, 0.2 mM PMSF, 10 mM N-ethylmaleimide, 1% sodium dodecyl sulfate, and 10 mM dithiothreitol), sonicated, boiled for 5 minutes, and incubated in the presence of iodoacetamide (25 mM) for 30 minutes at 37° C. with shaking. Samples were centrifuged at 15,000×g for 10 minutes at 4° C. Supernatants were then transferred to fresh microcentrifuge tubes, snap frozen in liquid N2, and stored at −80° C. Protein concentration in cell-associated and ECM-associated fractions was determined using a Coomassie protein microassay (Pierce, Rockford, Ill.) with BSA as the standard. Sample aliquots equaling 0.5 mg of total protein were diluted 3-fold in immunoprecipitation buffer (20 mM Tris-HCl (pH 8.8), 2 mM EDTA, 0.2 mM PMSF, 10 mM N-ethylmaleimide) and precleared with 20 μl (50% slurry) of Protein G-agarose beads for 2 hours. Samples were then incubated overnight with 0.05 mg of an anti-collagen IV monoclonal antibody (clone M3F7) at 4° C. with vigorous shaking. Samples were incubated for 2 hours at 4° C. with shaking in the presence of goat anti-mouse IgG at a concentration in two-fold excess of that of the primary antibody. Immune complexes were precipitated for 2 hours at 4° C. with shaking using 40 μl (50% slurry) of Protein G-agarose beads.
To collect the collagen IV immune complexes, samples were centrifuged at 15,000×g for 1 minute at 4° C. […]
as §1

[4] = 37° C.; cited from earlier work

Structure (SMILES): O=C1O[C@H]([C@@H](O)CO)C(O)=C1OP(=O)(O)O [L-ascorbic acid-2-phosphate, L-Ascorbic acid-2-phosphate]
- ratio of 4-[^3H]-L-proline:[^14C]-L-proline greater than controls ([1]; 500 μM AscP): approximately 45%
- collagen IV synthesis, 500 μM compared to 50 μM AscP ([2]; day 1, uninjured RPTC): decreased
- collagen IV deposition in DCVC-injured RPTC ([3]; 500 μM AscP, throughout the experiment): maintained collagen IV deposition at levels equal to that of controls
- collagen IV deposition by uninjured RPTC, pharmacological vs physiological AscP ([3]; uninjured RPTC, not statistically significant): numerical increase
- stable in culture media [4]: ≥ 7 days

Structure (SMILES): N[C@@H](CSC(Cl)=CCl)C(=O)O [S-(1,2-dichlorovinyl)-L-cysteine]
- ratio of 4-[^3H]-L-proline:[^14C]-L-proline greater than controls ([1]; 50 μM AscP, higher ratio = decreased proline hydroxylation): approximately 80%
- increase in collagen IV synthesis ([2]; one day after DCVC, both 50 μM and 500 μM AscP): 1.8 fold
- decrease in collagen IV deposition compared to controls ([3]; day 4 after DCVC, physiological AscP, not statistically significant): approximately 50%
- collagen IV deposition ([3]; one day after DCVC, 50 μM AscP): significantly inhibited
